Laboratory results published in US9393221B2, “Methods and compounds for reducing intracellular lipid storage” (THE GENERAL HOSPITAL CORPORATION, priority 2011, dated 2016).
Structures can show the parent of a compound that is named as a salt.

tested on: ATGL-KO iPSCs; assay: High throughput iPSC chemical screening, Oil Red O (ORO) lipid accumulation; format: cell-based, mouse; details: glycolytic switch compounds; on Z-score: test concentration or dose not given here

Compared with `O=C1NCN(c2ccccc2)C12CCN(CCCC(c1ccc(F)cc1)c1ccc(F)cc1)CC2` [Fluspirilen, reference compound], `Fc1ccc(C(OCCN2CCN(CCCc3ccccc3)CC2)c2ccc(F)cc2)cc1` [GBR 12909 dihydrochloride] is higher in “Rank in normalized ORO score from screen” value: 40 for the first, 208 for the second.

First: Cc1cc2c(C(C)C)c(O)c(O)c(C=O)c2c(O)c1-c1c(C)cc2c(C(C)C)c(O)c(O)c(C=O)c2c1O [Gossypol]
Second: CC1CC(OC(=O)c2ccccc2O)CC(C)(C)C1 (stereo not drawn) [Homosalate]
The “Rank in normalized ORO score from screen” value of the first is lower: 8 for the first, 320 for the second.

same assay, conditions: normalized ORO level vs DMSO-treated cells; compound present during 7 days differentiation, 96-well; negative = decrease in lipid accumulation

Compared with `Cc1c(Nc2ncccc2C(=O)O)cccc1C(F)(F)F` [Flunixin meglumine], `CNCCC(Oc1ccc(C(F)(F)F)cc1)c1ccccc1` (stereo not drawn) [Fluoxetine hydrochloride] is lower in Z-score: −1.0122 for the first, −1.0533 for the second.

First: CC(=O)OCC(=O)[C@@]12OC(C)(C)O[C@@H]1C[C@H]1[C@@H]3C[C@H](F)C4=CC(=O)C=C[C@]4(C)[C@@]3(F)[C@@H](O)C[C@@]12C [Fluocinonide]
Second: CCC(=O)O[C@]1(C(=O)SCF)[C@H](C)C[C@H]2[C@@H]3C[C@H](F)C4=CC(=O)C=C[C@]4(C)[C@@]3(F)[C@@H](O)C[C@@]21C [Fluticasone propionate]
The Z-score of the first is higher: 0.3846 for the first, −1.0154 for the second.

Going from `C/C=C1/C[N@+]2(C)CC[C@]34C(=C(C=O)[C@H]1C[C@@H]32)Nc1ccccc14.[Cl-]` [Fluorocurarine chloride] to `C=C[C@]12CN(C)[C@@H]3[C@H]4CO[C@H](C[C@H]41)[C@]1(C(=O)Nc4ccccc41)[C@@H]32` [Gelsemine], the Z-score rises from −1.1648 to −0.4693.

First: CC(=O)[C@@]1(O)CC[C@H]2[C@@H]3C[C@H](C)C4=CC(=O)C=C[C@]4(C)[C@@]3(F)[C@@H](O)C[C@@]21C [Fluorometholone]
Second: CC1(C)O[C@@H]2C[C@H]3[C@@H]4CCC5=CC(=O)CC[C@]5(C)[C@@]4(F)[C@@H](O)C[C@]3(C)[C@]2(C(=O)CCl)O1 [Halcinonide]
The Z-score of the first is higher: 0.1317 for the first, −0.7085 for the second.

Going from `Cl.Cl.OCCN1CCN(CC/C=C2/c3ccccc3Sc3ccc(C(F)(F)F)cc32)CC1` [Flupentixol dihydrochloride cis-(Z)] to `OCCN1CCN(CCCN2c3ccccc3Sc3ccc(C(F)(F)F)cc32)CC1` [Fluphenazine dihydrochloride], the Z-score rises from −0.5309 to 0.4317.

First: CC1(C)O[C@@H]2C[C@H]3[C@@H]4C[C@H](F)C5=CC(=O)CC[C@]5(C)[C@H]4[C@@H](O)C[C@]3(C)[C@]2(C(=O)CO)O1 [Flurandrenolide]
Second: C[C@@H]1CC[C@@]2(OC1)O[C@H]1C[C@H]3[C@@H]4CC[C@@]5(C)C[C@@H](O)CC[C@]5(C)[C@H]4CC(=O)[C@]3(C)[C@H]1[C@@H]2C [Hecogenin]
The Z-score of the first is lower: −0.0402 for the first, 0.9208 for the second.

First: CC(C(=O)O)c1ccc(-c2ccccc2)c(F)c1 (stereo not drawn) [Flurbiprofen]
Second: CC(C)n1c(/C=C/C(O)CC(O)CC(=O)O)c(-c2ccc(F)cc2)c2ccccc21 (stereo not drawn) [Fluvastatin sodium salt]
The Z-score of the first is lower: −1.4 for the first, 9.993 for the second.

Compared with `O=C1NCN(c2ccccc2)C12CCN(CCCC(c1ccc(F)cc1)c1ccc(F)cc1)CC2` [Fluspirilen, reference compound], `Fc1ccc(C(OCCN2CCN(CCCc3ccccc3)CC2)c2ccc(F)cc2)cc1` [GBR 12909 dihydrochloride] is higher in Z-score: −1.6301 for the first, −1.0102 for the second.

Going from `CC(C)C(=O)Nc1ccc([N+](=O)[O-])c(C(F)(F)F)c1` [Flutamide] to `CCCCN(CCCC)CCC(O)c1cc2c(Cl)cc(Cl)cc2c2cc(C(F)(F)F)ccc12` (stereo not drawn) [Halofantrine hydrochloride], the Z-score rises from −0.5472 to 1.459.

Compared with `COCCCC/C(=N\OCCN)c1ccc(C(F)(F)F)cc1` [Fluvoxamine maleate], `CCOC(=O)c1ccc(OC(=O)CCCCCN=C(N)N)cc1.CS(=O)(=O)O` [Gabexate mesilate] is lower in Z-score: −1.2293 for the first, −1.4041 for the second.

Compared with `Nc1nc2ncc(CNc3ccc(C(=O)N[C@@H](CCC(=O)O)C(=O)O)cc3)nc2c(=O)[nH]1` [Folic acid], `Nc1nc(=O)c2c([nH]1)NCC(CNc1ccc(C(=O)N[C@@H](CCC(=O)[O-])C(=O)[O-])cc1)N2C=O.[Ca+2]` (stereo partly drawn) [Folinic acid calcium salt] is lower in Z-score: 1.253 for the first, −0.7409 for the second.

Going from `O=C(O)c1ccccc1OP(=O)(O)O` [Fosfosal] to `CC1CC(OC(=O)c2ccccc2O)CC(C)(C)C1` (stereo not drawn) [Homosalate], the Z-score rises from −1.2351 to −0.7744.

Compared with `O=C1OC(CN2CCOCC2)CN1/N=C/c1ccc([N+](=O)[O-])o1` (stereo not drawn) [Furaltadone hydrochloride], `COc1ccc2c3c1O[C@H]1C[C@@H](O)C=C[C@@]31CCN(C)C2` [Galanthamine hydrobromide] is lower in Z-score: −0.4516 for the first, −0.7931 for the second.

First: NS(=O)(=O)c1cc(C(=O)O)c(NCc2ccco2)cc1Cl [Furosemide]
Second: O=C(OCC(O)CO)c1ccccc1Nc1ccnc2cc(Cl)ccc12 (stereo not drawn) [Glafenine hydrochloride]
The Z-score of the first is higher: 0.5074 for the first, −0.4014 for the second.

Compared with `CCCCc1ccc(C(=O)O)nc1` [Fusaric acid], `Cc1ccc(C)c(OCCCC(C)(C)C(=O)O)c1` [Gemfibrozil] is higher in Z-score: −0.977 for the first, −0.2634 for the second.

First: CC(=O)O[C@H]1C[C@@]2(C)[C@@H](C[C@@H](O)[C@H]3[C@@]4(C)CC[C@@H](O)[C@@H](C)[C@@H]4CC[C@@]32C)/C1=C(\CCC=C(C)C)C(=O)O [Fusidic acid sodium salt]
Second: C[C@H](CCC(=O)NCC(=O)O)[C@H]1CC[C@H]2[C@@H]3[C@H](O)C[C@@H]4C[C@H](O)CC[C@]4(C)[C@H]3C[C@H](O)[C@]12C [Glycocholic acid]
The Z-score of the first is higher: 0.9973 for the first, −0.6342 for the second.

First: NCC1(CC(=O)O)CCCCC1 [Gabapentin]
Second: CC(CNC1CCCCC1)OC(=O)c1ccccc1 (stereo not drawn) [Hexylcaine hydrochloride]
The Z-score of the first is lower: −0.2478 for the first, 0.687 for the second.

Going from `COc1ccc(-c2ccc(=N)n(CCCC(=O)O)n2)cc1` [Gabazine] to `O=C(CCCN1CCC(O)(c2ccc(Cl)cc2)CC1)c1ccc(F)cc1` [Haloperidol], the Z-score falls from −0.1416 to −1.1776.

First: CC[N+](CC)(CC)CCOc1cccc(OCC[N+](CC)(CC)CC)c1OCC[N+](CC)(CC)CC [Gallamine triethiodide]
Second: COc1ccccc1OCC(O)CO (stereo not drawn) [Guaifenesin]
The Z-score of the first is higher: 0.8644 for the first, 0.144 for the second.

Going from `Nc1nc(O)c2ncn(COC(CO)CO)c2n1` [Ganciclovir] to `CC[C@H](c1ccc(O)cc1)[C@@H](CC)c1ccc(O)cc1` [Hexestrol], the Z-score falls from −0.9945 to −1.0339.

First: C=C1C[C@]23C[C@@]1(O)CC[C@H]2[C@@]12C=C[C@H](O)[C@@](C)(C(=O)O1)[C@H]2[C@@H]3C(=O)O [Gibberellic acid]
Second: C[C@@H]1C(=O)O[C@H]2C[C@@]34[C@H]5C[C@@H](C(C)(C)C)[C@]36[C@@H](OC(=O)[C@@H]6O)O[C@@]4(C(=O)O5)[C@]21O [Ginkgolide A]
The Z-score of the first is higher: 0.8089 for the first, −0.1024 for the second.

First: COc1ccc(Cl)cc1C(=O)NCCc1ccc(S(=O)(=O)NC(=O)NC2CCCCC2)cc1 [Glibenclamide]
Second: Cc1cnc(C(=O)NCCc2ccc(S(=O)(=O)NC(=O)NC3CCCCC3)cc2)cn1 [Glipizide]
The Z-score of the first is higher: 0.3112 for the first, −0.2981 for the second.

First: Cc1ccc(S(=O)(=O)NC(=O)NN2CC3CCCC3C2)cc1 (stereo not drawn) [Gliclazide]
Second: CCC1=C(C)CN(C(=O)NCCc2ccc(S(=O)(=O)NC(=O)N[C@H]3CC[C@H](C)CC3)cc2)C1=O [Glimepiride]
The Z-score of the first is higher: 0.2404 for the first, 0.1043 for the second.

Compared with `COc1ccc2c(c1)C(=O)N(CCc1ccc(S(=O)(=O)NC(=O)NC3CCCCC3)cc1)C(=O)C2(C)C` [Gliquidone], `COc1ccc2c(c1)[nH]c1c(C)nccc12.Cl` [Harmine hydrochloride] is higher in Z-score: −0.9495 for the first, 0.3085 for the second.

Compared with `CCC1(c2ccc(N)cc2)CCC(=O)NC1=O` (stereo not drawn) [Glutethimide, para-amino], `Cc1[nH]ccc2c1[nH]c1cc(=O)ccc12` [Harmol hydrochloride monohydrate] is lower in Z-score: 0.2858 for the first, −0.0757 for the second.

Going from `C[N+]1(C)CCC(OC(=O)C(O)(c2ccccc2)C2CCCC2)C1` (stereo not drawn) [Glycopyrrolate] to `CN1CCCN(C(c2ccccc2)c2ccc(Cl)cc2)CC1` (stereo not drawn) [Homochlorcyclizine dihydrochloride], the Z-score falls from −0.6161 to −0.8178.

Compared with `Cc1cc2c(C(C)C)c(O)c(O)c(C=O)c2c(O)c1-c1c(C)cc2c(C(C)C)c(O)c(O)c(C=O)c2c1O` [Gossypol], `COc1ccc([C@@H]2CC(=O)c3c(O)cc(O)cc3O2)cc1O` [Hesperetin] is higher in Z-score: −2.0704 for the first, −1.3358 for the second.

Going from `CN(C)Cc1c[nH]c2ccccc12` [Gramine] to `NNc1nncc2ccccc12` [Hydralazine hydrochloride], the Z-score rises from 1.618 to 9.342.

First: Cn1c(-c2ccc3c(c2)OCO3)cc(=O)c2ccccc21 [Graveoline]
Second: CN1CCC2=C[C@H](O)[C@H]3OC(=O)c4cc5c(cc4[C@H]3[C@@H]21)OCO5 [Hippeastrine hydrobromide]
The Z-score of the first is higher: −1.0242 for the first, −1.1441 for the second.

Going from `COC1=CC(=O)C[C@@H](C)[C@]12Oc1c(Cl)c(OC)cc(OC)c1C2=O` [Griseofulvin] to `COc1ccc([C@@H]2CC(=O)c3c(O)cc(O[C@@H]4O[C@H](CO[C@@H]5O[C@@H](C)[C@H](O)[C@@H](O)[C@H]5O)[C@@H](O)[C@H](O)[C@H]4O)cc3O2)cc1O` [Hesperidin], the Z-score rises from 0.2728 to 2.254.

Compared with `N=C(N)N/N=C/c1c(Cl)cccc1Cl` [Guanabenz acetate], `N=C(N)NC(=O)Cc1c(Cl)cccc1Cl` [Guanfacine hydrochloride] is higher in Z-score: −0.3551 for the first, −0.0783 for the second.

Compared with `COc1ccc2c3c([nH]c2c1)C(C)=NCC3.Cl.O.O` [Harmaline hydrochloride dihydrate], `CC1=NCCc2c1[nH]c1cc(O)ccc21.Cl.O.O` [Harmalol hydrochloride dihydrate] is higher in Z-score: −0.5714 for the first, 0.3888 for the second.

Compared with `C[C@]1(OC(=O)/C=C/c2ccccc2)C[C@@H](O)[C@]2(O)C=CO[C@@H](O[C@@H]3O[C@H](CO)[C@@H](O)[C@H](O)[C@H]3O)[C@@H]21` [Harpagoside], `C[N+]1(C)CCOC(O)(c2ccc(-c3ccc(C4(O)C[N+](C)(C)CCO4)cc3)cc2)C1.[Br-].[Br-]` (stereo not drawn) [Hemicholinium bromide] is higher in Z-score: −1.174 for the first, 2.91 for the second.

First: CO[C@H](C)[C@](O)(C(=O)OCC1=CCN2CC[C@H](O)[C@@H]12)C(C)C [Heliotrine]
Second: CC(N)CCCC(C)(C)O (stereo not drawn) [Heptaminol hydrochloride]
The Z-score of the first is lower: −1.2812 for the first, −0.2987 for the second.

First: C[N+](C)(C)CCCCCC[N+](C)(C)C.O.O.[Br-].[Br-] [Hexamethonium dibromide dihydrate]
Second: CCCCC(CC)CN1CN(CC(CC)CCCC)CC(C)(N)C1 (stereo not drawn) [Hexetidine]
The Z-score of the first is lower: −0.5997 for the first, 1.396 for the second.

Work on `CCN(CC)CCNc1ccc(CO)c2sc3ccccc3c(=O)c12` [Hycanthone] yielded a Z-score of 20.1467.
